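Cultured in 96-well plates, cells were exposed to test compound for 48 hours across five concentrations. The concentration for full growth arrest is given as TGI.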
Tests used:
Test in all cases: NCI anticancer screen, dose series, 48 h
MDA-MB-231 breast = tested on: MDA-MB-231 breast
SF-295 CNS = tested on: SF-295 CNS
HS 578T breast = tested on: HS 578T breast
SK-MEL-28 melanoma = tested on: SK-MEL-28 melanoma
NCI/ADR-RES ovarian = tested on: NCI/ADR-RES ovarian
LOX IMVI melanoma = tested on: LOX IMVI melanoma
UACC-257 melanoma = tested on: UACC-257 melanoma
BT-549 breast = tested on: BT-549 breast
HT29 colon = tested on: HT29 colon
PC-3 prostate = tested on: PC-3 prostate
HL-60(TB) leukemia = tested on: HL-60(TB) leukemia
T-47D breast = tested on: T-47D breast
K-562 leukemia = tested on: K-562 leukemia
MOLT-4 leukemia = tested on: MOLT-4 leukemia
HCT-15 colon = tested on: HCT-15 colon
786-0 renal = tested on: 786-0 renal
CCRF-CEM leukemia = tested on: CCRF-CEM leukemia
MDA-N = tested on: MDA-N
ACHN renal = tested on: ACHN renal
COLO 205 colon = tested on: COLO 205 colon
HOP-62 NSCLC = tested on: HOP-62 NSCLC
SK-MEL-2 melanoma = tested on: SK-MEL-2 melanoma
SK-OV-3 ovarian = tested on: SK-OV-3 ovarian
NCI-H522 lung = tested on: NCI-H522 lung
SR leukemia = tested on: SR leukemia
NCI-H226 lung = tested on: NCI-H226 lung
MALME-3M melanoma = tested on: MALME-3M melanoma
UO-31 renal = tested on: UO-31 renal
OVCAR-4 ovarian = tested on: OVCAR-4 ovarian
SNB-19 CNS = tested on: SNB-19 CNS
HOP-92 NSCLC = tested on: HOP-92 NSCLC
EKVX NSCLC = tested on: EKVX NSCLC
UACC-62 melanoma = tested on: UACC-62 melanoma
HCC-2998 colon = tested on: HCC-2998 colon
SW-620 colon = tested on: SW-620 colon
KM12 colon = tested on: KM12 colon
RXF 393 renal = tested on: RXF 393 renal
HCT-116 colon = tested on: HCT-116 colon
DU-145 prostate = tested on: DU-145 prostate
U251 CNS = tested on: U251 CNS
CAKI-1 renal = tested on: CAKI-1 renal
A549 NSCLC = tested on: A549 NSCLC
TK-10 renal = tested on: TK-10 renal
MDA-MB-435 = tested on: MDA-MB-435
NCI-H460 lung = tested on: NCI-H460 lung
SNB-75 CNS = tested on: SNB-75 CNS
M14 melanoma = tested on: M14 melanoma
SF-268 CNS = tested on: SF-268 CNS
OVCAR-5 ovarian = tested on: OVCAR-5 ovarian
OVCAR-8 ovarian = tested on: OVCAR-8 ovarian
RPMI-8226 leukemia = tested on: RPMI-8226 leukemia
MCF7 breast = tested on: MCF7 breast
SK-MEL-5 melanoma = tested on: SK-MEL-5 melanoma
SF-539 CNS = tested on: SF-539 CNS
SN12C renal = tested on: SN12C renal
IGROV1 ovarian = tested on: IGROV1 ovarian
OVCAR-3 ovarian = tested on: OVCAR-3 ovarian

Measured: TGI

COc1ccc(/C=C(\C#N)c2nc3ccccc3c(=O)[nH]2)cc1
91.6 µM: HS 578T breast
19.7 µM: MDA-MB-231 breast
25.2 µM: NCI-H522 lung
83.8 µM: TK-10 renal
64.6 µM: DU-145 prostate
57.1 µM: SK-MEL-5 melanoma
72.4 µM: UO-31 renal
34.7 µM: 786-0 renal
19 µM: HCT-116 colon
42.3 µM: ACHN renal
26.1 µM: SF-539 CNS
70.3 µM: OVCAR-4 ovarian
47.2 µM: SF-268 CNS
29.3 µM: HOP-92 NSCLC
28.9 µM: SNB-19 CNS
32.3 µM: RXF 393 renal
75.1 µM: T-47D breast | IGROV1 ovarian
74.7 µM: SK-MEL-2 melanoma
52.2 µM: SF-295 CNS
34.4 µM: NCI-H460 lung
28.4 µM: OVCAR-8 ovarian
23.8 µM: SK-OV-3 ovarian
80.1 µM: CAKI-1 renal
90.1 µM: NCI/ADR-RES ovarian
84.3 µM: NCI-H226 lung
33.9 µM: U251 CNS
29.7 µM: BT-549 breast
24.1 µM: HOP-62 NSCLC
not listed: OVCAR-3 ovarian
> 100 µM: all other assays above

O=C(O)c1cc2ccccc2c(N=Nc2ccc(S(=O)(=O)O)cc2)c1O
not listed: LOX IMVI melanoma
> 100 µM: all other assays above

— PubChem BioAssay (NCI)
